# Laboratory results: paper PMC7915588, “Polyphyllin D Shows Anticancer Effect through a Selective Inhibition of Src Homology Region 2-Containing Protein Tyrosine Phosphatase-2 (SHP2)” (Molecules, 2021)
# Tests used:
# PTPN21 (PTPD1) = biological target: T1, PTPN21 (PTPD1) (Homo sapiens, UniProt Q16825); assay: biochemical; design: Fluorogenic phosphatase assay, DiFMUP hydrolysis by recombinant PTPs, initial velocity, Ex/Em 355/460 nm; details: read-out: Inhibition by 20 µM polyphyllin D (%)
# T1 construct: 839-1174
# T1 sequence (Q16825 1-1174): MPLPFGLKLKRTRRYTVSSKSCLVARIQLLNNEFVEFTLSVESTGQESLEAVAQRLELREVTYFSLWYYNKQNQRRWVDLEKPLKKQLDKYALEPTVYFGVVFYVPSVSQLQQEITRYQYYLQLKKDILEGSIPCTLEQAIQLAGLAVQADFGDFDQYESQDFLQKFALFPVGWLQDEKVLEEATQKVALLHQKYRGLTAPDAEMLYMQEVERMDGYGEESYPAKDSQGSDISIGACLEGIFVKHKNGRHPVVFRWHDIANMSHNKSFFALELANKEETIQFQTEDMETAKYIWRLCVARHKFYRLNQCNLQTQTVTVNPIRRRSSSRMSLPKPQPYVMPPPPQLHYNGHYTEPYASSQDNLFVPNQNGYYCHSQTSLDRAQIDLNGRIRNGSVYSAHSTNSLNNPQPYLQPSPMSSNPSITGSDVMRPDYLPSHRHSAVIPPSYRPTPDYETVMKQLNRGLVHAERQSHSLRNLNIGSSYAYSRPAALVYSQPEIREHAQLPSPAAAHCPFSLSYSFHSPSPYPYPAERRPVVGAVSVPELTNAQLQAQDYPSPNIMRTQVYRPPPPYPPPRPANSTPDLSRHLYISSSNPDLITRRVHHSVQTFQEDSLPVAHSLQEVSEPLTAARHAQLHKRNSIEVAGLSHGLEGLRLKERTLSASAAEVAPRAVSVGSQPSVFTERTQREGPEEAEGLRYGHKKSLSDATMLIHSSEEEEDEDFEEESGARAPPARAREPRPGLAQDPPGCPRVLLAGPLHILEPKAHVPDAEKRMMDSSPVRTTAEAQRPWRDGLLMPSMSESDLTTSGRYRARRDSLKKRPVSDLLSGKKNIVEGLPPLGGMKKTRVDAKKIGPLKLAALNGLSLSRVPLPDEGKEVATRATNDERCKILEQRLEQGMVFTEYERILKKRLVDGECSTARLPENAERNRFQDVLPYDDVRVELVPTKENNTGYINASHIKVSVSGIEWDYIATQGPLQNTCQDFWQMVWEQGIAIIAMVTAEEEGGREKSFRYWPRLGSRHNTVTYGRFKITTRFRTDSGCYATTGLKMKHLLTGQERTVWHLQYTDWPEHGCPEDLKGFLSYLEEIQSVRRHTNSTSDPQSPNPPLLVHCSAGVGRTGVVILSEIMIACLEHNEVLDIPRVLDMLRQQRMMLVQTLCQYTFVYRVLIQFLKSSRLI
# Description: (§1) Enzymatic reactions were initiated by the addition of SHP2 (final concentration of 10 nM) to a solution of each of the 658 phytochemical compounds (final concentration of 20 µM) in reaction buffer (20 mM bis-tris pH 6.0, 150 mM NaCl, 2.5 mM dithiothreitol, and 0.01% Triton X-100) containing DiFMUP (final concentration of 140 µM). Changes in the fluorescence intensities were measured continuously for 10 min at Ex/Em = 355/460 nm on a VictorTM X4 multilabel plate reader. Enzyme inhibition was estimated by comparing the reaction velocity in the presence of each compound with that in the absence of any compound. Inhibition of the other PTPs was measured in the same way. Next, we established a screening strategy using a DiFMUP substrate to identify a natural product that inhibits SHP2 activity. Initially, we screened 658 compounds at 20 µM using a 96-well plate system (Figure 2A). […] The selected compounds were tested at 20 µM for SHP2 inhibition, and 14 additional non-receptor-type PTPs (PTP1B, TCPTP, PTPH1, STEP, SHP1, HePTP, PTP-MEG2, PTP-PEST, PTP-BAS, PTP36, PTP-HSCF, PTPD1, LYP, and HD-PTP) were used to investigate the inhibition selectivity. The results were visualized using a heat map analysis by GraphPad Prism (Figure 2B and Table S2 in Supplementary Materials). To identify new SHP2 anticancer natural products, we first performed cloning to express SHP2 protein and then purified it. PTPN11 (Gene ID: 5781) encoding human SHP2 (amino acids sequences 1 to 526) with several extra amino acids were cloned into the MBP-pET 28a (+) vector, which was successfully used to overexpress PTPs with enhanced solubility in an Escherichia coli expression system. Information on amino acids for 15 non-receptor-type PTPs including SHP2 is summarized in Table S3 in the Supplementary Materials. SHP2 was overexpressed in RosettaTM (DE3) and purified using a metal affinity resin (Figure S1 in Supplementary Materials). […] The kcat, KM, and kcat/KM values were determined to be 270 min^−1, 70 μM, and 3.9 μM^−1min^−1, respectively, using the Lineweaver–Burk plot analysis (Table S1 in Supplementary Materials).
# PTPN9 (PTP-MEG2) = biological target: T2, PTPN9 (PTP-MEG2) (Homo sapiens, UniProt P43378); assay: biochemical; design: Fluorogenic phosphatase assay, DiFMUP hydrolysis by recombinant PTPs, initial velocity, Ex/Em 355/460 nm; details: read-out: Inhibition by 20 µM polyphyllin D (%)
# T2 construct: 277-582
# T2 sequence (P43378 1-593): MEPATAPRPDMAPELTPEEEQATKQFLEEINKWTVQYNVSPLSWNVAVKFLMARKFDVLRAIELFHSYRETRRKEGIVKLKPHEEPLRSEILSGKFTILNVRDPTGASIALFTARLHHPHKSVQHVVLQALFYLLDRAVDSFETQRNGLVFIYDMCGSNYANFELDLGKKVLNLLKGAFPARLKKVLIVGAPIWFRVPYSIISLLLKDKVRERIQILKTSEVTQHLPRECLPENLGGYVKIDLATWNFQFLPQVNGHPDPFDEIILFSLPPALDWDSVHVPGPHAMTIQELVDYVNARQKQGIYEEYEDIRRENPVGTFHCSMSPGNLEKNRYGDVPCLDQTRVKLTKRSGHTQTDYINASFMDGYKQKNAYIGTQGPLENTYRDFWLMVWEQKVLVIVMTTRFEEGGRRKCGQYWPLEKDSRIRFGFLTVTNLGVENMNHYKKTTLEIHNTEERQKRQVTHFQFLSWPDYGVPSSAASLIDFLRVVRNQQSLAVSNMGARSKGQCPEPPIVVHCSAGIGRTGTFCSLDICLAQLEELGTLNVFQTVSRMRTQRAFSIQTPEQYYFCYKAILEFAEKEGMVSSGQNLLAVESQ
# Description: as §1
compound,measurement,setting,value
C[C@@H]1CC[C@@]2(OC1)O[C@H]1C[C@H]3[C@@H]4CC=C5C[C@@H](O[C@@H]6O[C@H](CO)[C@@H](O[C@@H]7O[C@@H](CO)[C@H](O)[C@H]7O)[C@H](O)[C@H]6O[C@@H]6O[C@@H](C)[C@H](O)[C@@H](O)[C@H]6O)CC[C@]5(C)[C@H]4CC[C@]3(C)[C@H]1[C@@H]2C [polyphyllin D],inhibition at 20 µM,PTPN21 (PTPD1),20.5%
same,inhibition at 20 µM,PTPN9 (PTP-MEG2),0%
